Experiment [1] relates to dAdTdT (ATT) triplex (DNA, polymer) A/T/T. Put plainly: fluorescence titration, Scatchard. Conditions: Na+ (sodium cacodylate, I = 0.05 M); pH 7.0, 25 °C; per phosphate; per base.
Experiment [2] shares this test system. Put plainly: UV melting, 260 nm. The settings on record: Na+ (sodium cacodylate with NaCl, I = 0.1 M); pH 7.0, 1 mM EDTA; 7.5 μM compound, r = 0.3; transition Tm3→1 (third strand); per base.
Experiment [3] has as its system poly dA-poly dT (pdApdT) (DNA, polymer) A/T. Put plainly: UV melting, 260 nm. The settings on record: Na+ (sodium cacodylate, I = 0.05 M), pH 7.0, per base.
Experiment [4] has the same test system. Put plainly: fluorescence titration, Scatchard. Conditions: Na+ (sodium cacodylate, I = 0.05 M); pH 7.0, 25 °C; per phosphate; per base.
The subject of experiment [5] is poly A-poly U (pApU) (RNA, polymer) A/U. Put plainly: fluorescence titration, Scatchard. The settings on record: Na+ (sodium cacodylate, I = 0.05 M), per phosphate, per base.
Experiment [6] relates to poly(dAdT)2 (DNA, polymer) AT. As to the kind of experiment: fluorescence titration, Scatchard. The settings on record: Na+ (sodium cacodylate, I = 0.05 M); pH 7.0, 25 °C; per phosphate; per base.
Experiment [7] relates to poly(dAdT)2 (DNA, polymer) AT. Put plainly: UV melting, 260 nm. Conditions: Na+ (sodium cacodylate, I = 0.05 M); pH 7.0; compound/polynucleotide r = 0.3; per base.
The subject of experiment [8] is poly(dGdC)2 (DNA, polymer) GC. Put plainly: fluorescence titration, Scatchard. The settings on record: Na+ (sodium cacodylate, I = 0.05 M); pH 7.0, 25 °C; per phosphate; per base.
Experiment [9] has as its system poly A-poly U (pApU) (RNA, polymer) A/U. As to the kind of experiment: UV melting, 260 nm. The settings on record: Na+ (sodium cacodylate, I = 0.05 M); pH 7.0; compound/polynucleotide r = 0.3; per base.
The mark [10] stands for this setting: compound/polynucleotide r = 0.3.

The structures appear in SMILES notation.

For the compound `COC(=O)[C@H](Cc1ccc2c(c1)c(C)nc1ccccc12)NC(=O)[C@H](CCCCN)NC(=O)CNC(=O)c1ccc(C(=O)NC(=N)N)[nH]1`, the “log Ka” value in [1] was determined as 7.4; in experiment [4] it was 6.6; in experiment [5] (pH 7.0, 25 °C), 7.1; in [6] it was 6.7; in experiment [8], 5.8. The ΔTm in [2] was found to be 1.1 ± 0.5 °C; in [3] (r = 0.3, biphasic, second transition), 2.1 ± 0.5 °C; in experiment [7], 1.0 ± 0.5 °C; in experiment [9], 2.5 ± 0.5 °C.
Regarding `COC(=O)[C@H](Cc1ccc2c(c1)c(C)nc1ccccc12)NC(=O)CNC(=O)CNC(=O)c1ccc(C(=O)NC(=N)N)[nH]1`, the values for the ΔTm in experiment [3] (setting [10]), in experiment [7] and in [9] were 0.7 ± 0.5 °C, 1.2 ± 0.5 °C and 0 ± 0.5 °C, respectively.
As for `COC(=O)[C@H](Cc1ccc2c(c1)c(C)nc1ccccc12)NC(=O)CNC(=O)[C@H](CCCCN)NC(=O)c1ccc(C(=O)NC(=N)N)[nH]1`, the values for the ΔTm in experiment [3] (setting [10]), in experiment [7] and in [9] were 1.5 ± 0.5 °C, 2.6 ± 0.5 °C and 0 ± 0.5 °C, respectively. Moreover, the “log Ka” value was 5.5 in experiment [5] (pH 5.0, 25 °C, not determinable at pH 7.0); 6.7 in experiment [6]; 6.1 in experiment [8].

In general, ΔTm refers to the change in melting temperature against a reference sample.
